Experimental findings from BindingDB's records for doi:10.1016/j.ejphar.2003.10.049 (University of Innsbruck, 2004) are described below.

Usually Ki stands for a dissociation constant, usually derived from enzyme kinetics or from competition with a known ligand.

In experiment [1] the target is Delta-type opioid receptor (Rattus norvegicus, UniProt P33533).
Experiment [2] addresses Kappa-type opioid receptor (Rattus norvegicus, UniProt P34975).
For another experiment, the target named is Mu-type opioid receptor (Rattus norvegicus, UniProt P33535).
Chain of Mu-type opioid receptor (P33535 whole entry): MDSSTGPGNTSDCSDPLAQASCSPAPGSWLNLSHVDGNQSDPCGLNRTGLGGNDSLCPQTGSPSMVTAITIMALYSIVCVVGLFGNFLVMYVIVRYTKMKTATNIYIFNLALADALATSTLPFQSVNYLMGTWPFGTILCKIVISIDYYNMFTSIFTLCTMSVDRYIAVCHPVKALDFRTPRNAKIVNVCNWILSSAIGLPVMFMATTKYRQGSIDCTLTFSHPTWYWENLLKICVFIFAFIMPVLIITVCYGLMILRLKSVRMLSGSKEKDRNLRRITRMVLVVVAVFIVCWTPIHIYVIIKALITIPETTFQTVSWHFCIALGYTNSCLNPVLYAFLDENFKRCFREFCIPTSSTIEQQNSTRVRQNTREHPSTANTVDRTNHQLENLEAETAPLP

Chain of Kappa-type opioid receptor (P34975 whole entry): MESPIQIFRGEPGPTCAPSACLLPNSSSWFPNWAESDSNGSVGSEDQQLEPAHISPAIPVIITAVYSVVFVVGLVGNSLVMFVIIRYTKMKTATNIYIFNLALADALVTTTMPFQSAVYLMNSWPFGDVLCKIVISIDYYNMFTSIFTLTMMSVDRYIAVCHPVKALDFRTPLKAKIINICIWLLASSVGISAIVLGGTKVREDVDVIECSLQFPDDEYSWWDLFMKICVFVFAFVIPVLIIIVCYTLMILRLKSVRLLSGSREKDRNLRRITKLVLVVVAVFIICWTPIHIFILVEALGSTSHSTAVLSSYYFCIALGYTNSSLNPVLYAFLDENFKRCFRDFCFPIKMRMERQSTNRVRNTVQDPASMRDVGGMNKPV
Chain of Delta-type opioid receptor (P33533 whole entry): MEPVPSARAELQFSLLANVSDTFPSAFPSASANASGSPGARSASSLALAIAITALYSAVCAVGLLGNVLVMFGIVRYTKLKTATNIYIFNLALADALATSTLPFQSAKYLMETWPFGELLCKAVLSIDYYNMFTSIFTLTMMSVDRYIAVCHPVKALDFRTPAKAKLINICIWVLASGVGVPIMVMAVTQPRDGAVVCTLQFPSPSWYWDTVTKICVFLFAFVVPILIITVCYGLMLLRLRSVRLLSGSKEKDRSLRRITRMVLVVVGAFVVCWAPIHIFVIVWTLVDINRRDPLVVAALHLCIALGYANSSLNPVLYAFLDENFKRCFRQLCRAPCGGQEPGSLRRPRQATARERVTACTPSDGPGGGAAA

Consider `COC12CC[C@H](N[C@H](C)C(=O)O)[C@@H]3Oc4c(O)ccc5c4[C@@]31CCN(C)C2C5` (stereo partly drawn) [(2S)-2-[4,5alpha-epoxy-3-hydroxy-14beta-methoxy-17-methylmorphinan-6alpha-yl)amino]propanoic acid bis(tetrafluoroborate)], for which the results for the Ki in experiment [1] and in experiment [2] were 26.9 nM and 142 nM, respectively.

Regarding `COC12CC[C@@H](N[C@H](C)C(=O)O)[C@@H]3Oc4c(O)ccc5c4[C@@]31CCN(C)C2C5` (stereo partly drawn) [(2S)-2-[4,5alpha-epoxy-3-hydroxy-14beta-methoxy-17-methylmorphinan-6beta-yl)amino]propanoic acid bis(tetrafluoroborate)], the Ki in experiment [1] was 7.71 nM; in experiment [2], 63.7 nM.

In the case of `COC12CC[C@H](N[C@H](Cc3ccccc3)C(=O)O)[C@@H]3Oc4c(O)ccc5c4[C@@]31CCN(C)C2C5` (stereo partly drawn) [(2S)-2-[(4,5alpha-epoxy-3-hydroxy-14beta-methoxy-17-methylmorphinan-6alpha-yl)amino]-3-phenylpropanoic acid bis(tetrafluroborate)], the Ki came out at 0.95 nM at Mu-type opioid receptor and 28.5 nM in experiment [2].

For the compound `COC12CC[C@@H](N[C@H](Cc3ccccc3)C(=O)O)[C@@H]3Oc4c(O)ccc5c4[C@@]31CCN(C)C2C5` (stereo partly drawn) [(2S)-2-[(4,5alpha-epoxy-3-hydroxy-14beta-methoxy-17-methylmorphinan-6beta-yl)amino]-3-phenylpropanoic acid bis(tetrafluoroborate)], the Ki on Mu-type opioid receptor was 2.58 nM; in experiment [1] it was 1.03 nM; in experiment [2] it was 151 nM.

Turning to `CCO[C@@]12Cc3c([nH]c4ccccc34)[C@]3(C)Oc4c(O)ccc5c4[C@@]31CCN(CC1CC1)C2C5` [HS-378], the Ki at Mu-type opioid receptor came to 340 nM; in experiment [2], 134 nM.
